Here are results for two molecules from publication PMC7745444 (ACS Omega, 2020).

One test concerns the target β-galactosidase (Escherichia coli, UniProt P00722). As to the kind of experiment: p-nitrophenyl galactopyranoside hydrolysis, absorbance at […] nm. Format: biochemical.
For another test, the target named is β-glucosidase. Description: p-nitrophenyl glucopyranoside hydrolysis, absorbance at […] nm. In kind it is biochemical, Prunus dulcis.

Broadly, the Ki is a dissociation constant, usually derived from enzyme kinetics or from competition with a known ligand.

Chain of β-galactosidase (P00722 2-1024): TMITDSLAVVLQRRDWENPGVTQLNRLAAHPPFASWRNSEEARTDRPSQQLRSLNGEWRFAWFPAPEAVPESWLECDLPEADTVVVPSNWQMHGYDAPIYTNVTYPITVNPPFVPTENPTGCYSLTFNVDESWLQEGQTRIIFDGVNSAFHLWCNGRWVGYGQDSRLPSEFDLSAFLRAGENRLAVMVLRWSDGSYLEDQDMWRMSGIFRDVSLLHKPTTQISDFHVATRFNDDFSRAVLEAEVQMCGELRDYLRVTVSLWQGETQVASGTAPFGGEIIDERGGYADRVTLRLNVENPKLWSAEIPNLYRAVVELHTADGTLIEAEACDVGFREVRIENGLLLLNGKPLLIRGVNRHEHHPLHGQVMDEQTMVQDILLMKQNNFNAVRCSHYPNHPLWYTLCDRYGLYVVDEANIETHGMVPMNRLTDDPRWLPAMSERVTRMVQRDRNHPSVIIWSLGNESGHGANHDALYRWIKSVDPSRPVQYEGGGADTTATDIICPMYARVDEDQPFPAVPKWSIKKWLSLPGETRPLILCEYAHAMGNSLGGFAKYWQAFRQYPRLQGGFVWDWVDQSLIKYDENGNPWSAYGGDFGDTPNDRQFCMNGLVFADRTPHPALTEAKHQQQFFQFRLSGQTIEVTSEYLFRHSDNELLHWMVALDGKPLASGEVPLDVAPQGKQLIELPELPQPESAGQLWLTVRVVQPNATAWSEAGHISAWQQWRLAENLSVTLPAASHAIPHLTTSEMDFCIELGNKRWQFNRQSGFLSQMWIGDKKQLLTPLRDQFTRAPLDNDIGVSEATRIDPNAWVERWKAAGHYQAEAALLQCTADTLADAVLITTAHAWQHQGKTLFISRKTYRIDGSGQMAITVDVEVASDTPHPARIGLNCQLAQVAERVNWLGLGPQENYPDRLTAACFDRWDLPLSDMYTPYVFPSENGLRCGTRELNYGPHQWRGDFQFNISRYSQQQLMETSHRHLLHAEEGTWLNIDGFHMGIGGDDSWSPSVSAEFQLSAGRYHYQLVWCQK

As to `O=C(O)[C@H]1[C@@H]2CN[C@H](CO)[C@@H](O)[C@@H]21` [8a, (1R,4R,5S,6S,7S)-5-Hydroxy-4-(hydroxymethyl)-3-azabicyclo[4.1.0]heptane-7-carboxylic Acid], the Ki at β-galactosidase was 1.18 mM.
In the case of `CN1C[C@H]2[C@H](CO)[C@H]2[C@H](O)[C@H]1CO` [compound 9, (1S,4R,5S,6S,7S)-4,7-bis(Hydroxymethyl)-3-methyl-3-azabicyclo[4.1.0]heptan-5-ol], the Ki on β-glucosidase is 4.43 mM.
